According to patent publication US20230277459A1, “PHARMACEUTICAL COMPOSITIONS HAVING HIGH DRUG LOADINGS OF MEDIUM CHAIN TRIGLYCERIDES AND METHODS RELATED THERETO” (CERECIN INC., priority 2017, published 2023):

Assay: In-vitro digestion pH titration
Assay type: in vitro ADME
Details: FIG. 9
Excerpt: The digestion pH titration curves for both compositions, as well as control samples F-11 and the Miglyol 808 oil are shown in FIG. 9.

**Q.** With `CCCCCCCC(=O)OCC(COC(=O)CCCCCCC)OC(=O)CCCCCCC` [Miglyol 808 oil, caprylic triglyceride] as the compound, how does the “digestion pH titration curve” value read?
**A.** sigmoidal titration curve, and is slower to reach the endpoint
